Measured values reported in ChEMBL document CHEMBL1909046, “DrugMatrix in vitro pharmacology data”.

Experiments:
[1] = target: Beta-3 adrenergic receptor (Homo sapiens, UniProt P13945); assay: DRUGMATRIX: Adrenergic beta3 radioligand binding (ligand: [125I] Cyanopindolol); type: cell membranes, HEK293, Membrane; details: Not Active = under 50% inhibition at 10 µM
[2] = DRUGMATRIX: beta-Lactamase enzyme inhibition (substrate: Nitrocefin); design: species or system Bacillus cereus; details: Not Active = under 50% inhibition at 10 µM
[3] = DRUGMATRIX: Calcium Channel Type L, Dihydropyridine radioligand binding (ligand: [3H] Nitrendipine); type: cell membranes, Rattus norvegicus, Wistar, Cerebral cortex, Membrane; details: Not Active = under 50% inhibition at 10 µM
[4] = DRUGMATRIX: Glutamate, NMDA, Phencyclidine radioligand binding (ligand: [3H] TCP); type: cell membranes, Rattus norvegicus, Wistar, Cerebral cortex, Membrane; details: Not Active = under 50% inhibition at 10 µM
[5] = DRUGMATRIX: Leukotriene, BLT (LTB4) radioligand binding (ligand: [3H]LTB4); type: cell membranes, Membrane; details: u-937, Not Active = under 50% inhibition at 10 µM
[6] = DRUGMATRIX: Nicotinic Acetylcholine radioligand binding (ligand: [125I] Epibatidine); type: cell membranes, Membrane; details: imr-32; Not Active = under 50% inhibition at 10 µM

Sequence of Beta-3 adrenergic receptor (P13945 whole entry): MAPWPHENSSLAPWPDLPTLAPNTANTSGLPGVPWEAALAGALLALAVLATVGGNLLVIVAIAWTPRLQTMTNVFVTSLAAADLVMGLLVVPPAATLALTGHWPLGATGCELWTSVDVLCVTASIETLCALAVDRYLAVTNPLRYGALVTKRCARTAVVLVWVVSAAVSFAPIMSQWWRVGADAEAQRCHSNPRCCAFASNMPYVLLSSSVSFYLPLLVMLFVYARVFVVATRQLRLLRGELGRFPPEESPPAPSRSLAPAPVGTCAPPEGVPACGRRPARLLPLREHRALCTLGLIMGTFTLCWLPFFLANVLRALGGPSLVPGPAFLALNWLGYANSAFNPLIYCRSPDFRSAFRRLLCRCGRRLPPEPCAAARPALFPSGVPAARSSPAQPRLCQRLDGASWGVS

Row | Compound | IC50 ([1]; hek293) | IC50 [2] | Ki [2] | IC50 [3] | Ki [3] | IC50 [4] | Ki [4] | IC50 [5] | Ki [5] | IC50 [6] | Ki [6] | IC50 ([5]; read-out: IC50) [µM] | Ki ([5]; read-out: Ki) [µM] | Ki ([1]; hek293) | IC50 ([1]; read-out: IC50) [µM] | Ki ([1]; read-out: Ki) [µM]
1 | c1ccc([C@H]2CN3CCSC3=N2)cc1 [LEVAMISOLE] | Not Active | Not Active | Not Active | Not Active | Not Active | Not Active | Not Active | Not Active | Not Active | Not Active | Not Active |  |  |  |  | 
2 | CC1(C)O[C@@H]2C[C@H]3[C@@H]4CCC5=CC(=O)C=C[C@]5(C)[C@@]4(F)[C@@H](O)C[C@]3(C)[C@]2(C(=O)CO)O1 [TRIAMCINOLONE ACETONIDE] | Not Active | Not Active | Not Active | Not Active | Not Active | Not Active | Not Active | Not Active | Not Active | Not Active | Not Active |  |  |  |  | 
3 | N#CC(C#N)=Cc1ccc(O)c(O)c1 [TYRPHOSTIN 23] | Not Active | Not Active | Not Active | Not Active | Not Active | Not Active | Not Active | Not Active | Not Active | Not Active | Not Active |  |  |  |  | 
4 | Nc1nc2nc[nH]c2c(=S)[nH]1 [THIOGUANINE] | Not Active | Not Active | Not Active | Not Active | Not Active | Not Active | Not Active | Not Active | Not Active | Not Active | Not Active |  |  |  |  | 
5 | NS(=O)(=O)c1cc2c(cc1Cl)NC(C(Cl)Cl)NS2(=O)=O (centres undefined) [TRICHLORMETHIAZIDE] | Not Active | Not Active | Not Active | Not Active | Not Active | Not Active | Not Active | Not Active | Not Active | Not Active | Not Active |  |  |  |  | 
6 | CC(C)N1CCN(c2ccc(OCC3COC(Cn4cncn4)(c4ccc(Cl)cc4Cl)O3)cc2)CC1 (centres undefined) [TERCONAZOLE] |  | Not Active | Not Active | Not Active | Not Active | Not Active | Not Active |  |  |  |  | 24.9 | 6.32 |  |  | 
7 | CN1CCN(CCCN2c3ccccc3Sc3ccc(Cl)cc32)CC1 [PROCHLORPERAZINE] | Not Active |  |  |  |  |  |  |  |  |  |  |  |  |  |  | 
8 | CC(C)(C)NC(=O)[C@@H]1C[C@@H]2CCCC[C@@H]2CN1C[C@@H](O)[C@H](Cc1ccccc1)NC(=O)[C@H](CC(N)=O)NC(=O)c1ccc2ccccc2n1 | Not Active | Not Active | Not Active | Not Active | Not Active | Not Active | Not Active | Not Active | Not Active | Not Active | Not Active |  |  |  |  | 
9 | SODIUM NITROPRUSSIDE | Not Active | Not Active | Not Active | Not Active | Not Active | Not Active | Not Active | Not Active | Not Active | Not Active | Not Active |  |  | Not Active |  | 
10 | NC[C@H]1CC[C@H](C(=O)O)CC1 [TRANEXAMIC ACID] | Not Active | Not Active | Not Active | Not Active | Not Active | Not Active | Not Active | Not Active | Not Active | Not Active | Not Active |  |  |  |  | 
11 | CC/C(=C(\c1ccccc1)c1ccc(OCCN(C)C)cc1)c1ccccc1 [TAMOXIFEN] |  |  |  |  |  |  |  |  |  |  |  |  |  |  | 7.7 | 5.78
12 | N[C@@H]1[C@H]2CN(c3nc4c(cc3F)c(=O)c(C(=O)O)cn4-c3ccc(F)cc3F)C[C@@H]12 [TROVAFLOXACIN] | Not Active | Not Active | Not Active | Not Active | Not Active | Not Active | Not Active | Not Active | Not Active | Not Active | Not Active |  |  |  |  | 
13 | CC[C@@H](CO)NC(=O)[C@@H]1C=C2c3cccc4[nH]cc(c34)C[C@H]2N(C)C1 [METHYLERGONOVINE] | Not Active | Not Active | Not Active | Not Active | Not Active | Not Active | Not Active | Not Active | Not Active | Not Active | Not Active |  |  |  |  | 
14 | Cc1cccc(N(C)C(=S)Oc2ccc3ccccc3c2)c1 [TOLNAFTATE] | Not Active | Not Active | Not Active | Not Active | Not Active | Not Active | Not Active | Not Active | Not Active | Not Active | Not Active |  |  |  |  | 
15 | Cc1nc2n(c(=O)c1CCN1CCC(c3noc4cc(F)ccc34)CC1)CCCC2 [RISPERIDONE] | Not Active |  |  |  |  |  |  |  |  |  |  |  |  |  |  | 
